Measured values: USRE47193E1, “Selectively substituted quinoline compounds” (EISAI R&D MANAGEMENT CO., LTD., priority 2013, dated 2019)

Assays:
[1] = system: Mouse Splenocytes; assay: Mouse spleen cell-based assay (R848, IL-6 ELISA); conditions: Mus musculus, Splenocyte, BALB/c spleen cells, 370 nM R848
Method: Mouse Spleen cell-based assay. Spleens were harvested from female BALB/c mice (Jackson Labs, Bar Harbor, Me.) euthanized by CO2. A single cell suspension was obtained by passing spleens through a 40 μm an nylon cell strainer. Cells were washed twice with 50 ml PBS (Mediatech, Inc., Manassas, Va.) and red blood cells were lysed in 5 ml RBC Lysis buffer (eBioscience, Inc., San Diego, Calif.) for 5 minutes at room temperature. Cells were washed twice more in PBS and finally resuspended in supplemented RPMI-1640 at 2.5×10^6 cells/ml. Cells were plated at 100 μl/well (2.5×10^5 cells/well) in 96-well tissue culture treated plates (Falcon). Serial dilutions of compounds solubilized in 100% DMSO were added in triplicate to cells to yield a final concentration of 0.1% DMSO. Cells were incubated with compound for 30 minutes at 37° C., 5% CO2 before adding 100 μl/well of 740 nM R848 (Resiquimod; GLSynthesis, Worcester, Mass.) in complete media for a final concentration of 370 nM R848. Cells were incubated for 20 hours at 37° C., 5% CO2. Culture supernatants were collected, and levels of IL-6 were assessed by standard ELISA procedure according to the manufacturer's recommended protocol (BD Biosciences, Inc., San Diego, Calif.).

[2] = target: T1, mouse TLR7 (Mus musculus, UniProt P58681); assay: Short-term in vivo (STIV) assay: oral dosing, R848 s.c., plasma IL-6; design: female BALB/c mice (Jackson Labs, Bar Harbor, Me.) were dosed by oral gavage; tissue Jackson Labs; host or cells: living female BALB/c mice; plasma IL-6 after s.c. R848
T1 sequence (P58681 27-1050): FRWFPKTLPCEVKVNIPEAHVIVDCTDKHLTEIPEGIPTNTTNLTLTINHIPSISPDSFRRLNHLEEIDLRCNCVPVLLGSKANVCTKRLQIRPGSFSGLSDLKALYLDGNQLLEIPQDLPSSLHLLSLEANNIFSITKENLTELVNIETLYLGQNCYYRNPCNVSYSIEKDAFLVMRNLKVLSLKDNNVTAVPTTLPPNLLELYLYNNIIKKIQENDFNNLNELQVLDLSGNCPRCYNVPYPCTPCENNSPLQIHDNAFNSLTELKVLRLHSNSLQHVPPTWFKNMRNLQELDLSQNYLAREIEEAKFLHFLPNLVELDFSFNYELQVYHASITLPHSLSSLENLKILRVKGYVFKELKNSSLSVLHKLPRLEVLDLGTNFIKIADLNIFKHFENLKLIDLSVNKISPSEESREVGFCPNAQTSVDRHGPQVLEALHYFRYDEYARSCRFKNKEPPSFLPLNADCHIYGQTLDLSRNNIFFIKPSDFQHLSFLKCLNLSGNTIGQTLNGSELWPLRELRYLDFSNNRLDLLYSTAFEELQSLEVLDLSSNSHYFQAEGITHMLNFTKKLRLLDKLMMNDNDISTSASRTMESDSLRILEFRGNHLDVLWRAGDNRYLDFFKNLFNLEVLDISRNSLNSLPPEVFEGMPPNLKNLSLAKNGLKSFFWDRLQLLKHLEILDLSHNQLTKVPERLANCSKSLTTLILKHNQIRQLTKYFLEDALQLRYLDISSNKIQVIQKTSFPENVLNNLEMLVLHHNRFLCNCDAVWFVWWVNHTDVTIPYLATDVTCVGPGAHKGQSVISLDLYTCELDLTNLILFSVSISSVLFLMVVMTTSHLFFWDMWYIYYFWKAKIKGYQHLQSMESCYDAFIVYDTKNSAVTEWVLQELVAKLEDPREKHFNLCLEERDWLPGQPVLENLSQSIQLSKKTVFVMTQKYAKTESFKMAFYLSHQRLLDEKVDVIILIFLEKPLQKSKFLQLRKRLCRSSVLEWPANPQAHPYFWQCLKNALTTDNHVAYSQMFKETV
Method in brief: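 Female BALB/c mice (6–8 weeks) dosed orally with compound in 0.5% aqueous methyl-cellulose at 33, 100 or 300 mg/kg; at various times afterwards given 15 ug R848 s.c. to stimulate TLR7. Plasma IL-6 measured by ELISA to gauge potency and duration of action.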

SMILES | IC50 [1] [nM] | % Suppression vs. Vehicle ([2]; 3 h, 33 mg/kg) [%] | % Suppression vs. Vehicle ([2]; 3 h, 100 mg/kg) [%] | % Suppression vs. Vehicle ([2]; 6 h, 33 mg/kg) [%] | % Suppression vs. Vehicle ([2]; 6 h, 100 mg/kg) [%] | % Suppression vs. Vehicle ([2]; 19 h, 1.22 mg/kg) [%] | % Suppression vs. Vehicle ([2]; 19 h, 3.67 mg/kg) [%] | % Suppression vs. Vehicle ([2]; 19 h, 11 mg/kg) [%] | % Suppression vs. Vehicle ([2]; 19 h, 33 mg/kg) [%] | % Suppression vs. Vehicle ([2]; 19 h, 100 mg/kg) [%] | % Suppression vs. Vehicle ([2]; 13 h, 33 mg/kg) [%] | % Suppression vs. Vehicle ([2]; 13 h, 100 mg/kg) [%] | % Suppression vs. Vehicle ([2]; 13 h, 300 mg/kg) [%] | % Suppression vs. Vehicle ([2]; 24 h, 33 mg/kg) [%] | % Suppression vs. Vehicle ([2]; 24 h, 100 mg/kg) [%] | % Suppression vs. Vehicle ([2]; 24 h, 300 mg/kg) [%] | % Suppression vs. Vehicle ([2]; 6 h, 300 mg/kg) [%]
CC1CN(c2ccc(C#N)c3ncccc23)CC(CN2CCN(C)CC2C)O1 (stereo not drawn) [ER-889556] | 432 | 100 | 100 | 100 | 100 | 44 | 89 | 29 | 47 | 98 | – | – | – | – | – | – | –
CC1CN(c2ccc(C#N)c3ncccc23)CC(CN2CCC(NC(=O)C(C)C)CC2)O1 (stereo not drawn) [ER-889745] | 90 | – | 93 | 94 | 84 | – | – | – | 0 | 52 | 0 | 99 | 95 | 0 | 64 | 100 | –
CC[C@H]1CN(C[C@H]2CN(c3ccc(C#N)c4ncccc34)C[C@@H](C)O2)CCN1 [ER-890963] | 250 | 90 | – | 98 | 99 | – | – | – | 45 | – | 31 | 80 | 100 | – | 50 | 100 | 100
